Experimental data: ChEMBL document CHEMBL1201862, “PubChem BioAssay data set” (2004)
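A five-concentration, 48-hour dose response in 96-well plates underlies each endpoint, interpolated linearly between surrounding concentrations. GI50 = concentration required for 50% inhibition of growth.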 The source made the active and inactive calls. Rule as the data show it: active = GI50 up to about 1.1 µM and inactive = higher.

Legend:
Assay in all cases: growth of human tumour cells (NCI), 48 h
K562 = test system: K562
OVCAR-4 = test system: OVCAR-4
UACC-257 = test system: UACC-257
COLO 205 = test system: COLO 205
SF-268 = test system: SF-268
OVCAR-3 = test system: OVCAR-3
NCI-H522 = test system: NCI-H522
HCT-116 = test system: HCT-116
MCF7 = test system: MCF7
HOP-92 = test system: HOP-92
SN12C = test system: SN12C
M14 = test system: M14
SK-OV-3 = test system: SK-OV-3
UO-31 = test system: UO-31
MOLT-4 = test system: MOLT-4
IGROV-1 = test system: IGROV-1
HOP-62 = test system: HOP-62
NCI/ADR-RES = test system: NCI/ADR-RES
SR = test system: SR
CCRF-CEM = test system: CCRF-CEM

| Compound | GI50 (K562) | GI50 (OVCAR-4) | GI50 (UACC-257) | GI50 (COLO 205) | GI50 (SF-268) | GI50 (OVCAR-3) | GI50 (NCI-H522) | GI50 (HCT-116) | GI50 (MCF7) | GI50 (HOP-92) | GI50 (SN12C) | GI50 (M14) | GI50 (SK-OV-3) | GI50 (UO-31) | GI50 (MOLT-4) | GI50 (IGROV-1) | GI50 (HOP-62) | GI50 (NCI/ADR-RES) | GI50 (SR) | GI50 (CCRF-CEM) |
| --- | --- | --- | --- | --- | --- | --- | --- | --- | --- | --- | --- | --- | --- | --- | --- | --- | --- | --- | --- | --- |
| O=C1C(Cl)=C(Sc2nnc3c4ccccc4c4ccccc4c3n2)C(=O)c2ccccc21 | 21.1 µM (inactive) | 14.7 µM (inactive) | 16.3 µM (inactive) | 19.3 µM (inactive) | 27.5 µM (inactive) | 14 µM (inactive) | 15.2 µM (inactive) | 16 µM (inactive) | 12.6 µM (inactive) | 16.9 µM (inactive) | 16.6 µM (inactive) | 15.2 µM (inactive) | 21.6 µM (inactive) | 14.1 µM (inactive) | 13.9 µM (inactive) | 1.08 µM (active) | 16.7 µM (inactive) | 25.5 µM (inactive) | 7.43 µM (inactive) | 3.78 µM (inactive) |
| CCc1c(O)c2c(c(O)c1C(C)=O)C(=O)c1c(cc(O)c(C(=O)O)c1C(=O)O)C2=O | > 100 µM (inactive) | > 100 µM (inactive) | > 100 µM (inactive) | > 100 µM (inactive) | > 100 µM (inactive) | > 100 µM (inactive) | > 100 µM (inactive) | > 100 µM (inactive) | > 100 µM (inactive) | > 100 µM (inactive) | > 100 µM (inactive) | > 100 µM (inactive) | > 100 µM (inactive) | > 100 µM (inactive) | > 100 µM (inactive) | > 100 µM (inactive) | > 100 µM (inactive) | > 100 µM (inactive) | > 100 µM (inactive) | > 100 µM (inactive) |
| CC(C)C(=O)/C=C/c1c(Cl)cccc1Cl | 9.35 µM (inactive) | 3.4 µM (inactive) | 7.41 µM (inactive) | 10.4 µM (inactive) | 2.39 µM (inactive) | 2.41 µM (inactive) | 1.19 µM (inactive) | 1.64 µM (inactive) | 3.76 µM (inactive) | 12.9 µM (inactive) | 2.71 µM (inactive) | 2.61 µM (inactive) | 3.28 µM (inactive) | 4.3 µM (inactive) | 4.63 µM (inactive) | 3.75 µM (inactive) | 5.83 µM (inactive) | 3.04 µM (inactive) | 1.91 µM (inactive) | 11.6 µM (inactive) |
| CCCN(CCC)c1cc2c(cc1F)c(=O)c(C(=O)O)cn2-c1ccc(N2CCN(C)CC2)cn1 | 17.8 µM (inactive) | 19.2 µM (inactive) | 20.2 µM (inactive) | 13.4 µM (inactive) | 15.6 µM (inactive) | 15.7 µM (inactive) | 11.5 µM (inactive) | 15.3 µM (inactive) | 14.9 µM (inactive) | 13 µM (inactive) | 22.5 µM (inactive) | 16.9 µM (inactive) | 14.3 µM (inactive) | 13.3 µM (inactive) | 16.2 µM (inactive) | 12.9 µM (inactive) | 16.7 µM (inactive) | 17.6 µM (inactive) | 15.7 µM (inactive) | 17.6 µM (inactive) |
| CCOC(=O)Oc1cc2ccsc2c2c1c1ccccc1n2C(=O)OCC | > 100 µM (inactive) | 40.3 µM (inactive) | 91 µM (inactive) | > 100 µM (inactive) | 64 µM (inactive) | 70.1 µM (inactive) | 32.1 µM (inactive) | 54.6 µM (inactive) | 59 µM (inactive) | 22 µM (inactive) | 37.8 µM (inactive) | 31.3 µM (inactive) | 29 µM (inactive) | 24.2 µM (inactive) | > 100 µM (inactive) | > 100 µM (inactive) | 37.3 µM (inactive) | 38 µM (inactive) | > 100 µM (inactive) | > 100 µM (inactive) |
| CN1CCC(C(O)(c2ccccc2)c2ccc(Br)cc2)CC1 (stereo not given) | 16.7 µM (inactive) | 22.7 µM (inactive) | 15.4 µM (inactive) | 15.3 µM (inactive) | 31.5 µM (inactive) | 39.4 µM (inactive) | 15.5 µM (inactive) | 18.8 µM (inactive) | 22.6 µM (inactive) | 8.45 µM (inactive) | 16.9 µM (inactive) | 15.3 µM (inactive) | 32.7 µM (inactive) | 12.5 µM (inactive) | 23.1 µM (inactive) | 25.9 µM (inactive) | 24.8 µM (inactive) | 34.9 µM (inactive) | 17.5 µM (inactive) | 30.5 µM (inactive) |
